Test results reported in the NIST ThermoML archive (doi:10.1021/acs.jced.8b00015).
Numbers after ± are expanded uncertainties.

Tests used:
[1] = xn = mol fraction of the nth substance listed; conditions: 298.15 K, 101.3 kPa, Liquid
[2] = Crystal; DTA

Row | SMILES | mass density ([1]; Pycnometric method, x1 = 0.2) | mass density ([1]; Pycnometric method, x1 = 0.25) | mass density ([1]; Pycnometric method, x2 = 0.143) | also measured
1 | C[N+](C)(C)CCO.[Cl-] [choline chloride] + OCCO |  |  |  | mass density ([1]; Vibrating tube method, x1 = 0.333): 1116.8 ± 22 kg/m3
2 | C[N+](C)(C)CCO.[Cl-] [choline chloride] + OCCOCCO | 1112.1 ± 22 kg/m3 | 1116.9 ± 22 kg/m3 |  | 
3 | OCCNCCO [diethanolamine] |  |  |  | Normal melting temperature [2]: 27.00 ± 0.5 °C
4 | CCCC[N+](CCCC)(CCCC)CCCC.[Br-] [tetrabutylammonium bromide] + CN(CCO)CCO | 1056.9 ± 21 kg/m3 | 1051.3 ± 21 kg/m3 |  | 
5 | OCCNCCO [diethanolamine] + CCCC[N+](CCCC)(CCCC)CCCC.[Br-] |  |  | 1092.7 ± 22 kg/m3 | 
6 | CCCC[N+](CCCC)(CCCC)CCCC.[Br-] [tetrabutylammonium bromide] + OCCOCCO | 1081.8 ± 22 kg/m3 | 1078.2 ± 22 kg/m3 |  | mass density ([1]; Pycnometric method, x1 = 0.333): 1075.4 ± 22 kg/m3
7 | CCCC[N+](CCCC)(CCCC)CCCC.[Br-] [tetrabutylammonium bromide] + OCCO | 1072.7 ± 22 kg/m3 | 1069.8 ± 21 kg/m3 |  | mass density ([1]; Pycnometric method, x1 = 0.333): 1065.8 ± 21 kg/m3
8 | CN(CCO)CCO [N-methyldiethanolamine] + C[N+](C)(C)CCO.[Cl-] |  |  | 1046.8 ± 21 kg/m3 | mass density ([1]; Pycnometric method, x2 = 0.125): 1053.8 ± 21 kg/m3
9 | OCCNCCO [diethanolamine] + C[N+](C)(C)CCO.[Cl-] |  |  | 1098.4 ± 22 kg/m3 | 
